Measured values as given in BindingDB's records for doi:10.1016/j.ejmech.2021.113695 (Griffith University, 2021).

Experiment: Inhibition of NS2B-NS3 intramolecular cleavage in Dengue virus 2 infected in LLC-MK2 cells assessed as inhibition of viral replication measured afer 48 hrs by ELISA

Work on `O=C1c2c(O)ccc([N+](=O)[O-])c2C(=O)c2c([N+](=O)[O-])ccc(O)c21` yielded an EC50 of 4.2 µM.
